Usually IC50 stands for the concentration at which inhibition is half-maximal.

Residues, ends and D or L forms follow the SMILES beside them. *: point of attachment. X6 = CNCc1ccc(-c2c3c4c(cc(F)cc4n2[C@@H](CC(C)C)NC(=O)OCCS*)C(=O)NCC3)cc1; X5 = CNCc1ccc(-c2c3c4c(cc(F)cc4n2[C@H](CC(C)C)NC(=O)OCCS*)C(=O)NCC3)cc1; X20 = C[C@]12CCCN1C1=NNC(=O)c3cc(F)cc4c3c1c(n4CNC(=O)OCCS*)C2

The source of these data is patent US12427157B2, “Methods for treatment of diseases involving acidic or hypoxic diseased tissues” (Cybrexa 1, Inc., priority 2018, dated 2025).

In this assay the target is PARP (Homo sapiens, UniProt P09874). In words: Enzymatic Assay 2: HT Universal Chemiluminescent PARP Assay of cleaved compounds.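 Further: PARP reaction with activated DNA run 1 h at room temperature, product detected via streptavidin-HRP and luminescence endpoint reading on a plate reader.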 Conditions: read-out: IC50 Enzymatic Assay 2; Examples cleaved per Example A (crude cleavage solution); R^8H starting materials as such.
PARP, sequence (P09874 whole entry): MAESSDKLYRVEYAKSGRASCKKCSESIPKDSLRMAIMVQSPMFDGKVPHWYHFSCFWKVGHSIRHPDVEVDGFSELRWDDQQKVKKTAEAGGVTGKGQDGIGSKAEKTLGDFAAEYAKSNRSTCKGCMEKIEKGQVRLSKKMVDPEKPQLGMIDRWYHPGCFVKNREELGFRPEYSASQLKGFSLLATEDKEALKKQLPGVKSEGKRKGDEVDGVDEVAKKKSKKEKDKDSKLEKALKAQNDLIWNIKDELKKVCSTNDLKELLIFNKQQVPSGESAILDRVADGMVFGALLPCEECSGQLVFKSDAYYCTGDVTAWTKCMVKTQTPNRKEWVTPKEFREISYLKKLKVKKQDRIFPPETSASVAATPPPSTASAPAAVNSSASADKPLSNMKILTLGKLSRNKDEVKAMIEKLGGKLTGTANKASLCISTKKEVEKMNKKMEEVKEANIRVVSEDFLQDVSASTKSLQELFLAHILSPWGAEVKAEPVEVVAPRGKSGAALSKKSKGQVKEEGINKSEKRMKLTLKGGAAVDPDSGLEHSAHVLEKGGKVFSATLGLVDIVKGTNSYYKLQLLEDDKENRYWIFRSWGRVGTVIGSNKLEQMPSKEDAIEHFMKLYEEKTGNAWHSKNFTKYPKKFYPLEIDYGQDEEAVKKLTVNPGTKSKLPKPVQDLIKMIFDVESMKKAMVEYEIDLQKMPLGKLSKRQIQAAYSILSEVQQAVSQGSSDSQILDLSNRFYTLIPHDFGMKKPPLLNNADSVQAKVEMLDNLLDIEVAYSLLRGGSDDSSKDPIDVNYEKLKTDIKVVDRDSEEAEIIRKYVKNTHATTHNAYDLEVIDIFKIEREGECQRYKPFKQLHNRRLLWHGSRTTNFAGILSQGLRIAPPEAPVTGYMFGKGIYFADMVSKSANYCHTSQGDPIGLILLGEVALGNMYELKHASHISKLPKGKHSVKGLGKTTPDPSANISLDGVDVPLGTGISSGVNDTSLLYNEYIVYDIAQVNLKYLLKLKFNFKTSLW
Method: An equal volume of 1×PARP cocktail containing activated DNA was added to each well and the reaction was incubated for one hour at room temperature. The wells were washed twice with 1×PBS+0.1% Triton X-100 and twice with PBS. 50 ul/well of diluted streptavidin-HRP was added and the wells were incubated for one hour at room temperature. The wells were washed twice with 1×PBS+0.1% Triton X-100 and washed twice with PBS. The liquid was 5 removed, 100 ul/well 1:1 PeroxyGlow A/PeroxyGlow B was added and the chemiluminescent readings were measured on a BioTek Cytation 5 plate reader using the luminescence fiber endpoint.
For the compound `CC[C@H](C)[C@H](NC(=O)[C@@H]1CCCN1C(=O)[C@H](CC(N)=O)NC(=O)[C@H](CCC(N)=O)NC(=O)[C@H](CCC(=O)O)NC(=O)[C@H](C)N)C(=O)N[C@@H](Cc1ccc(O)cc1)C(=O)N[C@@H](Cc1c[nH]c2ccccc12)C(=O)N[C@@H](C)C(=O)N[C@@H](CCCNC(=N)N)C(=O)N[C@@H](Cc1ccc(O)cc1)C(=O)N[C@@H](C)C(=O)N[C@@H](CC(=O)O)C(=O)N[C@@H](Cc1c[nH]c2ccccc12)C(=O)N[C@@H](CC(C)C)C(=O)N[C@@H](Cc1ccccc1)C(=O)N[C@H](C(=O)N[C@H](C(=O)N1CCC[C@H]1C(=O)N[C@@H](CC(C)C)C(=O)N[C@@H](CC(C)C)C(=O)N[C@@H](CC(C)C)C(=O)N[C@@H](CC(C)C)C(=O)N[C@@H](CC(=O)O)C(=O)N[C@@H](CC(C)C)C(=O)N[C@@H](C)C(=O)N[C@@H](CC(C)C)C(=O)N[C@@H](CC(C)C)C(=O)N[C@H](C(=O)N[C@@H](CC(=O)O)C(=O)N[C@@H](C)C(=O)N[C@@H](CC(=O)O)C(=O)N[C@@H](CCC(=O)O)C(=O)N[C@@H](CSSCCOC(=O)N[C@@H](CC(C)C)n1c(-c2ccc(CNC)cc2)c2c3c(cc(F)cc31)C(=O)NCC2)C(=O)NCC(=O)O)C(C)C)[C@@H](C)O)[C@@H](C)O` [Example 34] (H-AEQNPIYWARYADWLFTTPLLLLDLALLVDADEC(X5)G-OH; N-terminus and C-terminus assumed), the IC50 was found to be 2.5 nM.
As for `CC[C@H](C)[C@H](NC(=O)[C@@H]1CCCN1C(=O)[C@H](CC(N)=O)NC(=O)[C@H](CCC(N)=O)NC(=O)[C@H](CCC(=O)O)NC(=O)[C@H](C)N)C(=O)N[C@@H](Cc1ccc(O)cc1)C(=O)N[C@@H](Cc1c[nH]c2ccccc12)C(=O)N[C@@H](C)C(=O)N[C@@H](CCCNC(=N)N)C(=O)N[C@@H](Cc1ccc(O)cc1)C(=O)N[C@@H](C)C(=O)N[C@@H](CC(=O)O)C(=O)N[C@@H](Cc1c[nH]c2ccccc12)C(=O)N[C@@H](CC(C)C)C(=O)N[C@@H](Cc1ccccc1)C(=O)N[C@H](C(=O)N[C@H](C(=O)N1CCC[C@H]1C(=O)N[C@@H](CC(C)C)C(=O)N[C@@H](CC(C)C)C(=O)N[C@@H](CC(C)C)C(=O)N[C@@H](CC(C)C)C(=O)N[C@@H](CC(=O)O)C(=O)N[C@@H](CC(C)C)C(=O)N[C@@H](C)C(=O)N[C@@H](CC(C)C)C(=O)N[C@@H](CC(C)C)C(=O)N[C@H](C(=O)N[C@@H](CC(=O)O)C(=O)N[C@@H](C)C(=O)N[C@@H](CC(=O)O)C(=O)N[C@@H](CCC(=O)O)C(=O)N[C@@H](CSSCCOC(=O)N[C@H](CC(C)C)n1c(-c2ccc(CNC)cc2)c2c3c(cc(F)cc31)C(=O)NCC2)C(=O)NCC(=O)O)C(C)C)[C@@H](C)O)[C@@H](C)O` [Example 35] (H-AEQNPIYWARYADWLFTTPLLLLDLALLVDADEC(X6)G-OH; N-terminus and C-terminus assumed), the figure is 3.1 nM; as for `CC(C)C[C@H](NC(=O)[C@H](Cc1ccc(O)cc1)NC(=O)[C@H](C)NC(=O)[C@H](CCCNC(=N)N)NC(=O)[C@H](Cc1c[nH]c2ccccc12)NC(=O)[C@@H]1CCCN1C(=O)[C@H](CC(N)=O)NC(=O)[C@H](CCC(N)=O)NC(=O)[C@H](CC(=O)O)NC(=O)[C@H](CC(=O)O)NC(=O)[C@H](C)N)C(=O)N[C@@H](CC(=O)O)C(=O)N[C@@H](CC(C)C)C(=O)N[C@@H](CC(C)C)C(=O)N[C@@H](Cc1ccccc1)C(=O)N1CCC[C@H]1C(=O)N[C@H](C(=O)N[C@@H](CC(=O)O)C(=O)N[C@H](C(=O)N[C@@H](CC(C)C)C(=O)N[C@@H](CC(C)C)C(=O)N[C@@H](CC(C)C)C(=O)N[C@@H](CC(=O)O)C(=O)N[C@@H](CC(C)C)C(=O)N[C@@H](CC(C)C)C(=O)N[C@@H](Cc1c[nH]c2ccccc12)C(=O)N[C@@H](CSSc1ccc(COC(=O)N(C)Cc2ccc(-c3[nH]c4cc(F)cc5c4c3CCNC5=O)cc2)cc1)C(=O)NCC(=O)O)[C@@H](C)O)[C@@H](C)O` [Example 36], 2.2 nM; as for `CC(C)C[C@H](NC(=O)[C@H](Cc1ccc(O)cc1)NC(=O)[C@H](C)NC(=O)[C@H](CCCNC(=N)N)NC(=O)[C@H](Cc1c[nH]c2ccccc12)NC(=O)[C@@H]1CCCN1C(=O)[C@H](CC(N)=O)NC(=O)[C@H](CCC(N)=O)NC(=O)[C@H](CC(=O)O)NC(=O)[C@H](CC(=O)O)NC(=O)[C@H](C)N)C(=O)N[C@@H](CC(=O)O)C(=O)N[C@@H](CC(C)C)C(=O)N[C@@H](CC(C)C)C(=O)N[C@@H](Cc1ccccc1)C(=O)N1CCC[C@H]1C(=O)N[C@H](C(=O)N[C@@H](CC(=O)O)C(=O)N[C@H](C(=O)N[C@@H](CC(C)C)C(=O)N[C@@H](CC(C)C)C(=O)N[C@@H](CC(C)C)C(=O)N[C@@H](CC(=O)O)C(=O)N[C@@H](CC(C)C)C(=O)N[C@@H](CC(C)C)C(=O)N[C@@H](Cc1c[nH]c2ccccc12)C(=O)N[C@@H](CC(=O)O)C(=O)N[C@@H](C)C(=O)N[C@@H](CC(=O)O)C(=O)N[C@@H](CCC(=O)O)C(=O)N[C@@H](CSSc1ccc(COC(=O)N(C)Cc2ccc(-c3[nH]c4cc(F)cc5c4c3CCNC5=O)cc2)cc1)C(=O)NCC(=O)O)[C@@H](C)O)[C@@H](C)O` [Example 37], 3.1 nM.
For `CC[C@H](C)[C@H](NC(=O)[C@@H]1CCCN1C(=O)[C@H](CC(N)=O)NC(=O)[C@H](CCC(N)=O)NC(=O)[C@H](CCC(=O)O)NC(=O)[C@H](C)N)C(=O)N[C@@H](Cc1ccc(O)cc1)C(=O)N[C@@H](Cc1c[nH]c2ccccc12)C(=O)N[C@@H](C)C(=O)N[C@@H](CCCNC(=N)N)C(=O)N[C@@H](Cc1ccc(O)cc1)C(=O)N[C@@H](C)C(=O)N[C@@H](CC(=O)O)C(=O)N[C@@H](Cc1c[nH]c2ccccc12)C(=O)N[C@@H](CC(C)C)C(=O)N[C@@H](Cc1ccccc1)C(=O)N[C@H](C(=O)N[C@H](C(=O)N1CCC[C@H]1C(=O)N[C@@H](CC(C)C)C(=O)N[C@@H](CC(C)C)C(=O)N[C@@H](CC(C)C)C(=O)N[C@@H](CC(C)C)C(=O)N[C@@H](CC(=O)O)C(=O)N[C@@H](CC(C)C)C(=O)N[C@@H](C)C(=O)N[C@@H](CC(C)C)C(=O)N[C@@H](CC(C)C)C(=O)N[C@H](C(=O)N[C@@H](CC(=O)O)C(=O)N[C@@H](C)C(=O)N[C@@H](CC(=O)O)C(=O)N[C@@H](CCC(=O)O)C(=O)N[C@@H](CSSCCOC(=O)NCn1c2c3c4c(cc(F)cc41)C(=O)NN=C3N1CCC[C@]1(C)C2)C(=O)NCC(=O)O)C(C)C)[C@@H](C)O)[C@@H](C)O` [Example 38] (H-AEQNPIYWARYADWLFTTPLLLLDLALLVDADEC(X20)G-OH; N-terminus and C-terminus assumed) the value was 2.8 nM; for `CC(C)C[C@H](NC(=O)[C@H](Cc1ccc(O)cc1)NC(=O)[C@H](C)NC(=O)[C@H](CCCNC(=N)N)NC(=O)[C@H](Cc1c[nH]c2ccccc12)NC(=O)[C@@H]1CCCN1C(=O)[C@H](CC(N)=O)NC(=O)[C@H](CCC(N)=O)NC(=O)[C@H](CC(=O)O)NC(=O)[C@H](CC(=O)O)NC(=O)[C@H](C)N)C(=O)N[C@@H](CC(=O)O)C(=O)N[C@@H](CC(C)C)C(=O)N[C@@H](CC(C)C)C(=O)N[C@@H](Cc1ccccc1)C(=O)N1CCC[C@H]1C(=O)N[C@H](C(=O)N[C@@H](CC(=O)O)C(=O)N[C@H](C(=O)N[C@@H](CC(C)C)C(=O)N[C@@H](CC(C)C)C(=O)N[C@@H](CC(C)C)C(=O)N[C@@H](CC(=O)O)C(=O)N[C@@H](CC(C)C)C(=O)N[C@@H](CC(C)C)C(=O)N[C@@H](Cc1c[nH]c2ccccc12)C(=O)N[C@@H](CSSC1(COC(=O)N(C)Cc2ccc(-c3[nH]c4cc(F)cc5c4c3CCNC5=O)cc2)CCC1)C(=O)NCC(=O)O)[C@@H](C)O)[C@@H](C)O` [Example 44], 1.5 nM; for `CC(C)C[C@H](NC(=O)[C@H](Cc1ccc(O)cc1)NC(=O)[C@H](C)NC(=O)[C@H](CCCNC(=N)N)NC(=O)[C@H](Cc1c[nH]c2ccccc12)NC(=O)[C@@H]1CCCN1C(=O)[C@H](CC(N)=O)NC(=O)[C@H](CCC(N)=O)NC(=O)[C@H](CC(=O)O)NC(=O)[C@H](CC(=O)O)NC(=O)[C@H](C)N)C(=O)N[C@@H](CC(=O)O)C(=O)N[C@@H](CC(C)C)C(=O)N[C@@H](CC(C)C)C(=O)N[C@@H](Cc1ccccc1)C(=O)N1CCC[C@H]1C(=O)N[C@H](C(=O)N[C@@H](CC(=O)O)C(=O)N[C@H](C(=O)N[C@@H](CC(C)C)C(=O)N[C@@H](CC(C)C)C(=O)N[C@@H](CC(C)C)C(=O)N[C@@H](CC(=O)O)C(=O)N[C@@H](CC(C)C)C(=O)N[C@@H](CC(C)C)C(=O)N[C@@H](Cc1c[nH]c2ccccc12)C(=O)N[C@@H](CC(=O)O)C(=O)N[C@@H](C)C(=O)N[C@@H](CC(=O)O)C(=O)N[C@@H](CCC(=O)O)C(=O)N[C@@H](CSS[C@H](C)COC(=O)N1CCC[C@@H](c2ccc(-n3cc4cccc(C(N)=O)c4n3)cc2)C1)C(=O)NCC(=O)O)[C@@H](C)O)[C@@H](C)O` [Example 45], 3.2 nM.
As to `CC(C)C[C@H](NC(=O)[C@H](Cc1ccc(O)cc1)NC(=O)[C@H](C)NC(=O)[C@H](CCCNC(=N)N)NC(=O)[C@H](Cc1c[nH]c2ccccc12)NC(=O)[C@@H]1CCCN1C(=O)[C@H](CC(N)=O)NC(=O)[C@H](CCC(N)=O)NC(=O)[C@H](CC(=O)O)NC(=O)[C@H](CC(=O)O)NC(=O)[C@H](C)N)C(=O)N[C@@H](CC(=O)O)C(=O)N[C@@H](CC(C)C)C(=O)N[C@@H](CC(C)C)C(=O)N[C@@H](Cc1ccccc1)C(=O)N1CCC[C@H]1C(=O)N[C@H](C(=O)N[C@@H](CC(=O)O)C(=O)N[C@H](C(=O)N[C@@H](CC(C)C)C(=O)N[C@@H](CC(C)C)C(=O)N[C@@H](CC(C)C)C(=O)N[C@@H](CC(=O)O)C(=O)N[C@@H](CC(C)C)C(=O)N[C@@H](CC(C)C)C(=O)N[C@@H](Cc1c[nH]c2ccccc12)C(=O)N[C@@H](CC(=O)O)C(=O)N[C@@H](C)C(=O)N[C@@H](CC(=O)O)C(=O)N[C@@H](CCC(=O)O)C(=O)N[C@@H](CSS[C@@H](C)COC(=O)N1CCC[C@@H](c2ccc(-n3cc4cccc(C(N)=O)c4n3)cc2)C1)C(=O)NCC(=O)O)[C@@H](C)O)[C@@H](C)O` [Example 46], the IC50 was 3.7 nM.
